Results on one compound are retold here after patent publication US20260200923A1, “HETEROCYCLIC COMPOUNDS TARGETING THE NUDT5 PROTEIN” (Oxford University Innovation Limited, priority 2022, published 2026).

Common to all, as to assay type: cell-based
For one assay, the target named is T1, NUDT5-CRBN interaction (Homo sapiens, UniProt Q96SW2+Q9UKK9).
T1 construct: expressed in transfected cells; host or cells: HEK293
Nature of the assay: NanoBRET ternary complex formation (protein-protein interaction) assay. Particulars: HEK293 cells, 4 h. The procedure:
For NanoBRET protein-protein interaction assay, NanoBRET Nano-Glo Detection System (N1662, Promega) was used according to the manufacturer's instruction. In brief, 220,000 HEK293 cells/ml was seeded in a 6-well plate. After 6 h, N-terminal nanoLuc NUDT5 and Halo-tag CRBN were then transfected into the cells using Fugene HD transfection reagent (E2312, Promega). The transfected HEK293 (220,000 cells/ml) were then replated onto a 384-well plate containing compounds. After 4 h incubation, NanoLuc substrate was added into each well and the signals were measured by PHERAstar Microplate Reader.
Compounds were dispensed in the 384-well plates by using Echo Acoustic Dispenser.
On the technique in general: Bioluminescence resonance energy transfer reports proximity on the nanometre scale.

In another assay the test system is MTHFD1^K56R cells. Kind of assay: growth of MTHFD1^K56R cells in adenosine-containing media. Particulars: 72 h. The procedure:
HAP1 (KBM7-derived, Horizon Discovery, C859), and HAP1 MTHFD1^KO, MTHFD1^K56R, and MTHFD1^K386E cell lines were cultured in Iscove's Modified Dulbecco's Medium (IMDM, Sigma), supplemented with 10% Fetal Bovine Serum (FBS, Sigma) and 1% Penicillin/Streptomycin (P/S, Sigma).
MTHFD1^KO cells in dialyzed FBS media were treated with a single nucleotide or folic acid metabolite for 72 hours. Cells were then stained with Hoechst, imaged, and counted using an Operetta (Perkin Elmer). For the AMPK activator studies, cells were stained with Hoechst, imaged, and counted using an Opera (Perkin Elmer). Similarly, MTHFD1^K56R cells in dialyzed FBS media were treated with adenosine for 72 hours. Cells were then stained with Hoechst, imaged, and counted using an Operetta (Perkin Elmer).

Assay [1] has as its system patient-derived fibroblast lines with MTHFD1 mutations. Kind of assay: adenosine toxicity in fibroblasts from MTHFD1 deficiency patients. Particulars: patient-derived cells. The procedure: Patient-derived fibroblast and control fibroblast lines were cultured in Minimum Essential Medium alpha media (MEMα, no nucleosides, Gibco), supplemented with 10% FBS and 1% P/S. These patient-derived fibroblast lines were previously characterized in Burda et al. 2015. For the experiments using dialyzed FBS, the dialyzed FBS was purchased from Gibco and added to IMDM at a final concentration of 10%. All the cell lines were incubated in 5% CO2 atmosphere at 37° C.

The next assay relates to HAP-1 cells. Nature of the assay: 6-thioguanine assay (CellTiter-Glo viability). Particulars: 0.2 μg/ml 6-thioguanine, 72 h; HAP1 (and NB4, FIG. 11). As to the method:
NB-4 and HAP1 cells (1000 cells/well in 40 uL) were seeded onto a 384-well plate containing compounds. DMSO or 0.2 μg/ml 6-thioguanine (A4882, Sigma-Aldrich) was added into respective wells. After 72 h incubation cell viability was measured by using CellTiter-Glo 2.0 Assay (G9242, Promega). Compounds in the 384-well plates were prepared by using Echo Acoustic Dispenser.
(Cellular ATP, detected with luciferase, serves as a proxy for viable cell number.)

The target in another assay is T2, NUDT5-PPAT interaction (Homo sapiens, UniProt Q9UKK9).
T2 construct: endogenous in cells; host or cells: HAP1 WT
Kind of assay: immunoprecipitation of endogenous PPAT. Particulars: HAP1 cells, 100 nM, 20 h. The procedure:
For detecting TH5427 interactors and the PPAT-NUDT5 interaction, protein samples were prepared using RIPA buffer containing benzonase (E1014-25KU, Sigma-Aldrich). Protein concentration was measured by DC assay (U.S. Pat. Nos. 5,000,113, 5,000,114, 5,000,115, Biorad). 30 μg protein out of each sample was separated on a SDS-page gel (3450125, Biorad) and transferred to a nitrocellulose membrane (10600014, Sigma-Aldrich) at 0.4 A for 1 h. The membranes were blocked by 5% BLOT-QuickBlocker in PBS-T at room temperature for 1 h (786-011, Bioscience) and incubated with primary antibodies at 4° C. overnight. Then, fluorophor conjugated secondary antibodies diluted 1:500 in 2×BLOT-QuickBlocker in PBS-T were added onto the membrane for 1 h at room temperature. Protein bands were visualized by a Odyssey® DLx Imaging System (Licor). The following primary antibodies were used: NUDT5 (ab129172, Abeam, 1:1000, anti-rabbit) or NUDT5 (sc-398644, 1:200, anti-mouse), β-actin (sc-69879, Santa Cruz Biotechnology, 1:200) and PPAT (15401-1-AP, Proteintech, 1:1000). The following secondary antibodies were used: Alexa Fluor 750 goat anti-mouse IgG (A21037, Life technologies) and goat anti-rabbit IgG (H+L) cross-adsorbed secondary Antibody, Alexa Fluor 647 (A21244, Life technologies).
HAP-1 WT cells were treated with 100 nM TH5427, dNUDT5 or DMSO for 20 h in a 100 mm dish. […]

The structures appear in SMILES notation.

On to `Cn1c(=O)c2c(nc(N3CCN(C(=O)N4CCC(CN5CCN(c6ccc7c(c6)C(=O)N(C6CCC(=O)NC6=O)C7=O)CC5)CC4)CC3)n2Cc2nnc(-c3ccc(Cl)c(Cl)c3)o2)n(C)c1=O` (stereo not drawn) [dNUDT5, 7-((5-(3,4-dichlorophenyl)-1,3,4-oxadiazol-2-yl)methyl)-8-(4-(4-((4-(2-(2,6-dioxopiperidin-3-yl)-1,3-dioxoisoindolin-5-yl)piperazin-1-yl)methyl)piperidine-1-carbonyl)piperazin-l-yl)-1,3-dimethyl-3,7-dihydro-1H-purine-2,6-dione], for which the “ternary complex formation between NUDT5 and CRBN” value at NUDT5-CRBN interaction is on record as “able to induce proficient ternary complex formation”. The “concentration of maximum rescue of cell viability” value in the assay on MTHFD1^K56R cells (adenosine supplementation) stood at 100 nM. Also, the “effect on adenosine toxicity / viability” value with MTHFD1^K56R cells (adenosine-containing media) is listed as “prevented adenosine toxicity”. The “effect on adenosine-mediated toxicity” value in assay [1] was “reverses adenosine-mediated toxicity”. Also, the “rescue of 6-TG toxicity” value in the assay with HAP-1 cells was “able to rescue 6-TG toxicity”. Moreover, the “amount of NUDT5 interacting with PPAT” value on NUDT5-PPAT interaction is reported as “strongly reduced the amount of NUDT5 interacting with PPAT”.
